In PubChem BioAssay AID2060614 (Molecular Pharmacology Branch, DTP, NCI, 2025):
“And” between values parts separate entries of the source, which are not always exact repeats. Equal entries are not always repeated.

System: 598228-144-R-J1-PDC complex spheroids, viability
Assay: Anticancer human tumor 598228-144-R-J1-PDC patient-derived serous endometrial adenocarcinoma cell line growth inhibition [CLK]
Details: for viability, T/C: stronger effect = lower value
Summary of the method: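 Patient-derived tumor cells grown as complex spheroids with HUVEC endothelial cells and mesenchymal stem cells, treated with drug combinations. Concentrations descend in half-log steps from near clinical Cmax, or from 10 microM if Cmax unknown.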
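Further: spheroids exposed to compounds for seven days before readout.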
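Wherever viability, T/C is given: 100% = DMSO vehicle control wells.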

Cn1ncnc1[C@H]1c2n[nH]c(=O)c3cc(F)cc(c23)N[C@@H]1c1ccc(F)cc1
viability, T/C (compound 0.000316 µM): 111% and 95.5% | viability, T/C (compound 0.001 µM): 103% and 114% | viability, T/C (compound 0.00316 µM): 81.5% and 109% | viability, T/C (compound 0.01 µM): 83.8% and 101% | viability, T/C (compound 0.0316 µM): 95.8% and 103% | viability, T/C (compound 0.1 µM): 76.3% and 84.7% | IC50 (curve of compound): > 0.1 µM

C=C(F)C(=O)N1CCN(c2nc(OCC3CCCN3C)nc3c2CCN(c2cccc4cccc(Cl)c24)C3)CC1CC#N (centres undefined) + CNC(=O)c1ccc(Nc2nc(OC3CCCC3)c3c(-c4ccc5nc(C)oc5c4)c[nH]c3n2)c(OC)c1
IC50 (curve of first compound, second compound 0.0316 µM): 5.08 µM | IC50 (curve of first compound, second compound 0.1 µM): 5.07 µM | IC50 (curve of first compound, second compound 0.316 µM): 5.08 µM | IC50 (curve of first compound, second compound 1 µM): 4.6 µM | IC50 (curve of first compound, second compound 3.16 µM): 4.83 µM | IC50 (curve of first compound, second compound 10 µM): 4.05 µM | viability, T/C (second compound 0.0316 µM, first compound 0.0316 µM): 108% | viability, T/C (second compound 0.0316 µM, first compound 0.1 µM): 115% | viability, T/C (second compound 0.0316 µM, first compound 0.316 µM): 98.6% | viability, T/C (second compound 0.0316 µM, first compound 1 µM): 99.7% | viability, T/C (second compound 0.0316 µM, first compound 3.16 µM): 85.7% | viability, T/C (second compound 0.0316 µM, first compound 10 µM): 1.18% | viability, T/C (second compound 0.1 µM, first compound 0.0316 µM): 104% | viability, T/C (second compound 0.1 µM, first compound 0.1 µM): 101% | viability, T/C (second compound 0.1 µM, first compound 0.316 µM): 96.2% | viability, T/C (second compound 0.1 µM, first compound 1 µM): 97.7% | viability, T/C (second compound 0.1 µM, first compound 3.16 µM): 81.5% | viability, T/C (second compound 0.1 µM, first compound 10 µM): 4.78% | viability, T/C (second compound 0.316 µM, first compound 0.0316 µM): 102% | viability, T/C (second compound 0.316 µM, first compound 0.1 µM): 98.6% | viability, T/C (second compound 0.316 µM, first compound 0.316 µM): 89.3% | viability, T/C (second compound 0.316 µM, first compound 1 µM): 107% | viability, T/C (second compound 0.316 µM, first compound 3.16 µM): 83.9% | viability, T/C (second compound 0.316 µM, first compound 10 µM): 1.64% | viability, T/C (second compound 1 µM, first compound 0.0316 µM): 100% | viability, T/C (second compound 1 µM, first compound 0.1 µM): 89.7% | viability, T/C (second compound 1 µM, first compound 0.316 µM): 89.3% | viability, T/C (second compound 1 µM, first compound 1 µM): 92.4% | viability, T/C (second compound 1 µM, first compound 3.16 µM): 72.9% | viability, T/C (second compound 1 µM, first compound 10 µM): 2.52% | viability, T/C (second compound 3.16 µM, first compound 0.0316 µM): 85.3% | viability, T/C (second compound 3.16 µM, first compound 0.1 µM): 90.9% | viability, T/C (second compound 3.16 µM, first compound 0.316 µM): 92.9% | viability, T/C (second compound 3.16 µM, first compound 1 µM): 91.1% | viability, T/C (second compound 3.16 µM, first compound 3.16 µM): 77.3% | viability, T/C (second compound 3.16 µM, first compound 10 µM): 3.14% | viability, T/C (second compound 10 µM, first compound 0.0316 µM): 86.3% | viability, T/C (second compound 10 µM, first compound 0.1 µM): 82.7% | viability, T/C (second compound 10 µM, first compound 0.316 µM): 83.4% | viability, T/C (second compound 10 µM, first compound 1 µM): 80.8% | viability, T/C (second compound 10 µM, first compound 3.16 µM): 62.8% | viability, T/C (second compound 10 µM, first compound 10 µM): 3.36%
